Assay results: PubChem BioAssay AID2060896 (Molecular Pharmacology Branch, DTP, NCI, 2025)

Test system: 941728-121-R-J1-PDC complex spheroid viability
Assay: Anticancer human tumor 941728-121-R-J1-PDC patient-derived lung adenocarcinoma cell line growth inhibition [RAS]
Conditions: for IC50: curve of first compound; for viability, T/C: stronger effect = lower value; active means viability on the fitted dose curve at most 10% of control; inactive means the rest
Summary of the method: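 Multi-cell-type spheroids: tumor cells plus HUVEC endothelial cells and mesenchymal stem cells. RAS-pathway inhibitors were combined with targeted agents, each dosed in half-log steps down from clinical Cmax, or from 10 microM when Cmax was unknown.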
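Further: spheroids exposed to compounds for 7 days before readout.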
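Wherever viability, T/C is given: 100% = DMSO vehicle control viability.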

C=CC(=O)N1CCN(c2nc(OCC3CCCN3C)nc3c(F)c(-c4nc(N)cc(C)c4C(F)(F)F)c(Cl)cc23)C(C)C1 (centres undefined) + CCn1c(-c2cc(N3CCN(C)CC3)cnc2C(C)OC)c2c3cc(ccc31)-c1csc(n1)CC(NC(=O)C1CC1C)C(=O)N1CCCC(N1)C(=O)OCC(C)(C)C2
inactive: viability, T/C (second compound 0.000949 µM, first compound 0.00316 µM) 20.1% | viability, T/C (second compound 0.000949 µM, first compound 0.01 µM) 19.7% | viability, T/C (second compound 0.000949 µM, first compound 0.0316 µM) 14.8% | viability, T/C (second compound 0.000949 µM, first compound 0.1 µM) 18.7% | viability, T/C (second compound 0.000949 µM, first compound 0.316 µM) 20.2% | viability, T/C (second compound 0.000949 µM, first compound 1 µM) 16.2% | viability, T/C (second compound 0.003 µM, first compound 0.00316 µM) 16.9% | viability, T/C (second compound 0.003 µM, first compound 0.01 µM) 15.7% | viability, T/C (second compound 0.003 µM, first compound 0.0316 µM) 14.5% | viability, T/C (second compound 0.003 µM, first compound 0.1 µM) 17.2% | viability, T/C (second compound 0.003 µM, first compound 0.316 µM) 19.6% | viability, T/C (second compound 0.003 µM, first compound 1 µM) 14.6% | viability, T/C (second compound 0.00949 µM, first compound 0.00316 µM) 17.3% | viability, T/C (second compound 0.00949 µM, first compound 0.01 µM) 16.4% | viability, T/C (second compound 0.00949 µM, first compound 0.0316 µM) 17.7% | viability, T/C (second compound 0.00949 µM, first compound 0.1 µM) 18% | viability, T/C (second compound 0.00949 µM, first compound 0.316 µM) 15.6% | viability, T/C (second compound 0.00949 µM, first compound 1 µM) 14.8% | viability, T/C (second compound 0.03 µM, first compound 0.00316 µM) 17.7% | viability, T/C (second compound 0.03 µM, first compound 0.01 µM) 18.3% | viability, T/C (second compound 0.03 µM, first compound 0.0316 µM) 17.5% | viability, T/C (second compound 0.03 µM, first compound 0.1 µM) 16.3% | viability, T/C (second compound 0.03 µM, first compound 0.316 µM) 14% | viability, T/C (second compound 0.03 µM, first compound 1 µM) 17.8% | viability, T/C (second compound 0.0949 µM, first compound 0.00316 µM) 15.6% | viability, T/C (second compound 0.0949 µM, first compound 0.01 µM) 16.7% | viability, T/C (second compound 0.0949 µM, first compound 0.0316 µM) 16.5% | viability, T/C (second compound 0.0949 µM, first compound 0.1 µM) 17.7% | viability, T/C (second compound 0.0949 µM, first compound 0.316 µM) 14.9% | viability, T/C (second compound 0.0949 µM, first compound 1 µM) 19.4% | viability, T/C (second compound 0.3 µM, first compound 0.00316 µM) 17% | viability, T/C (second compound 0.3 µM, first compound 0.01 µM) 17.2% | viability, T/C (second compound 0.3 µM, first compound 0.0316 µM) 17.1% | viability, T/C (second compound 0.3 µM, first compound 0.1 µM) 14.5% | viability, T/C (second compound 0.3 µM, first compound 0.316 µM) 18.5% | viability, T/C (second compound 0.3 µM, first compound 1 µM) 18.2%
< 3.16 nM: IC50 (second compound 0.000949 µM) | IC50 (second compound 0.003 µM) | IC50 (second compound 0.00949 µM) | IC50 (second compound 0.03 µM) | IC50 (second compound 0.0949 µM) | IC50 (second compound 0.3 µM)

CC1(C)CCC(Nc2ncc(C(F)(F)F)c(-c3c[nH]c4c(P(C)(C)=O)c(C#N)ccc34)n2)CN1 (centres undefined) + CCn1c(-c2cc(N3CCN(C)CC3)cnc2C(C)OC)c2c3cc(ccc31)-c1csc(n1)CC(NC(=O)C1CC1C)C(=O)N1CCCC(N1)C(=O)OCC(C)(C)C2
active: viability, T/C (second compound 0.3 µM, first compound 0.000949 µM) 9.86% | viability, T/C (second compound 0.3 µM, first compound 0.003 µM) 9.92% | viability, T/C (second compound 0.3 µM, first compound 0.00949 µM) 9.46% | viability, T/C (second compound 0.3 µM, first compound 0.03 µM) 8.06% | viability, T/C (second compound 0.3 µM, first compound 0.0949 µM) 9.53% | viability, T/C (second compound 0.3 µM, first compound 0.3 µM) 10.4%
< 0.949 nM: IC50 (second compound 0.000949 µM) | IC50 (second compound 0.003 µM) | IC50 (second compound 0.00949 µM) | IC50 (second compound 0.03 µM) | IC50 (second compound 0.0949 µM) | IC50 (second compound 0.3 µM)
inactive: viability, T/C (second compound 0.000949 µM, first compound 0.000949 µM) 26.8% | viability, T/C (second compound 0.000949 µM, first compound 0.003 µM) 28.2% | viability, T/C (second compound 0.000949 µM, first compound 0.00949 µM) 23.5% | viability, T/C (second compound 0.000949 µM, first compound 0.03 µM) 27.3% | viability, T/C (second compound 0.000949 µM, first compound 0.0949 µM) 32.7% | viability, T/C (second compound 0.000949 µM, first compound 0.3 µM) 24.8% | viability, T/C (second compound 0.003 µM, first compound 0.000949 µM) 19.8% | viability, T/C (second compound 0.003 µM, first compound 0.003 µM) 18.5% | viability, T/C (second compound 0.003 µM, first compound 0.00949 µM) 16.6% | viability, T/C (second compound 0.003 µM, first compound 0.03 µM) 22.6% | viability, T/C (second compound 0.003 µM, first compound 0.0949 µM) 19.5% | viability, T/C (second compound 0.003 µM, first compound 0.3 µM) 17.1% | viability, T/C (second compound 0.00949 µM, first compound 0.000949 µM) 14% | viability, T/C (second compound 0.00949 µM, first compound 0.003 µM) 10.3% | viability, T/C (second compound 0.00949 µM, first compound 0.00949 µM) 11.3% | viability, T/C (second compound 0.00949 µM, first compound 0.03 µM) 14.4% | viability, T/C (second compound 0.00949 µM, first compound 0.0949 µM) 12.3% | viability, T/C (second compound 0.00949 µM, first compound 0.3 µM) 12.2% | viability, T/C (second compound 0.03 µM, first compound 0.000949 µM) 10.8% | viability, T/C (second compound 0.03 µM, first compound 0.003 µM) 9.52% | viability, T/C (second compound 0.03 µM, first compound 0.00949 µM) 9.8% | viability, T/C (second compound 0.03 µM, first compound 0.03 µM) 10.9% | viability, T/C (second compound 0.03 µM, first compound 0.0949 µM) 9.73% | viability, T/C (second compound 0.03 µM, first compound 0.3 µM) 11.7% | viability, T/C (second compound 0.0949 µM, first compound 0.000949 µM) 9.88% | viability, T/C (second compound 0.0949 µM, first compound 0.003 µM) 9.37% | viability, T/C (second compound 0.0949 µM, first compound 0.00949 µM) 10% | viability, T/C (second compound 0.0949 µM, first compound 0.03 µM) 11.1% | viability, T/C (second compound 0.0949 µM, first compound 0.0949 µM) 8.77% | viability, T/C (second compound 0.0949 µM, first compound 0.3 µM) 11.9%
